# Measured values as given in patent US12629388B2, “Intradialytic use of sodium nitrite” (Hope Medical Enterprises, Inc., priority 2017, dated 2026).
# Where two headings read alike, the source gives them in different places.
# What was measured:
# [1] = during the first hour of hemodialysis; cited from earlier work
# [2] = mixed dialysate exiting Fresenius 2008K hemodialysis machine; expected 1.46 mg/L
# Description: (§1) Concentration of nitrite in samples was assayed by ion chromatography. The ion chromatograph was equipped with a conductivity detector, self-regenerating suppression system, eluent generator, and a Dionex IonPacAS19 analytical column. The nitrite concentration in the samples was measured and calculated against an external sodium nitrite standard. USP Sodium Nitrite Reference Standard (Item Number 1614454) was the testing standard (United States Pharmacopeia. Rockville, Maryland).
# The machine was primed in bypass mode (dialysate and ultrafiltration rates set at zero) using normal saline.
# [3] = Description: Example 1 was performed to determine the stability of sodium nitrite in aqueous solution when acid is added. A 100 mL sample of sodium nitrite solution with a concentration of 30 mg/mL was tested for the presence of nitrogen oxide gases (NO, NO2, N2O3, and N2O4) using an Orion Model 95-46 Nitrogen Oxide (NOx) electrode and a pH meter. With constant stirring, the mV reading with the NOx electrode and pH reading with the pH electrode were recorded after successive additions of 100 μL of either 0.02 N or 1 N hydrochloric acid.
# [4] = dialysate bicarbonate concentrate; for Nitrite Concentration by Assay: room temperature, expected 38.1 mg/L
# Description: as §1
# Example 2 was performed to determine the stability of sodium nitrite in dialysate bicarbonate concentrate solution. At room temperature, 300 mg sodium nitrite was added to 7,700 mL of dialysate bicarbonate concentrate solution. The nitrite concentration of the dialysate bicarbonate concentrate solution was analyzed by ion chromatography 1) before addition of sodium nitrite; 2) 5 minutes after the addition of sodium nitrite; and 3) 2 hours after the addition of sodium nitrite.
# [5] = for Nitrite Concentration After Addition of Sodium Nitrite (Time = 60 Min): average of two samples
# Description: as §1
# Dialysate bicarbonate concentrate solution was prepared by adding 1 package of Centrisol® MB-330 Series Sodium Bicarbonate Concentrate powder (650 g) to 7.7 liters of purified water.
# The hemodialysis machine mixed the bicarbonate concentrate solution and acid concentrate solution with the dilution ratio of 1 part of an acid concentrate solution, 1.72 parts of a bicarbonate concentrate solution, and 42.38 parts of purified water. The machine was primed in bypass mode (dialysate and ultrafiltration rates set at zero) using normal saline. After priming, the hemodialysis machine was run in “Therapy Mode” with the following settings: blood flow rate 300 ml/minute, dialysate flow rate 600 mL/minute, ultrafiltration rate 0 mL/minute.
# An aqueous solution of sodium nitrite was prepared by dissolving 3 mg of sodium nitrite in 1 liter of purified water. […] This valve was placed in the dialysate tubing approximately eight inches upstream of the dialyzer (pre-filter). Two sampling ports were placed four inches upstream (pre-dialyzer sampling port) and ten inches downstream (post-dialyzer sampling port) from the dialyzer to collect samples of dialysate for […] assay by ion chromatography.
# The infusion pump infused the sodium nitrite solution into the tubing through the valve at a rate of 250 mL/hour (4.16 mL/minute).
# Normal saline flowed into the dialyzer at a rate of 300 mL/minute from the Arterial line and exited the dialyzer through the Venous line. Samples of saline were collected from the venous side of the dialyzer.
# [6] = pre-mixed 1 L dialysate, pH 7.32 at 24.4° C. after addition; expected 2.997 mg/L
# Description: as §1
smiles,measurement,setting,value
"O=NO [Sodium Nitrite, sodium nitrite]",decline of the concentration of nitrite in the plasma,[1],over 60%
same,Nitrite Concentration by Assay,[2],None
same,pH at which nitrogen oxides was detected,"[3]; 30 mg/mL solution, successive addition of hydrochloric acid, detection limit 1 ppm NOx",6.7
same,initial pH of the sodium nitrite solution,"[3]; 100 mL solution, 30 mg/mL, before acid addition",8.73
same,response of the Nitrogen Oxide electrode,[3]; at pH 4.9,99.5 mV
same,response of the Nitrogen Oxide electrode,[3]; at pH 6.7,8.0 mV
same,stability on exposure to acid (in words),[3]; extent of decomposition generally inversely proportional to the pH,decomposes when exposed to acid
same,Nitrate Concentration,[4]; 5 minutes after addition,None
same,Nitrite Concentration by Assay,[4]; 5 minutes after addition,38.0 mg/L
same,Nitrate Concentration,[4]; 2 hours after addition,None
same,Nitrite Concentration by Assay,[4]; 2 hours after addition,38.5 mg/L
same,Nitrite Concentration After Addition of Sodium Nitrite (Time = 60 Min),[5]; dialysate after dialyzer,235 nM
same,Nitrite Concentration After Addition of Sodium Nitrite (Time = 60 Min),"[5]; dialysate before dialyzer, 3 mg/L solution infused at 250 mL/hour, dialysate flow 600 mL/minute",451 nM
same,stability when mixed with dialysate within dialysate tubing (in words),[5]; infused between the hemodialysis machine and the dialyzer membrane,stable
same,Nitrite Concentration After Addition of Sodium Nitrite (Time = 60 Min),[5]; saline solution after dialyzer (venous side),183 nM
same,Nitrite Concentration by Assay,[6],1.149 mg/L
